One assay has as its target T1, KRAS G12C/SOS1 (Homo sapiens, UniProt Q07889).
T1 sequence (Q07889 1-1333): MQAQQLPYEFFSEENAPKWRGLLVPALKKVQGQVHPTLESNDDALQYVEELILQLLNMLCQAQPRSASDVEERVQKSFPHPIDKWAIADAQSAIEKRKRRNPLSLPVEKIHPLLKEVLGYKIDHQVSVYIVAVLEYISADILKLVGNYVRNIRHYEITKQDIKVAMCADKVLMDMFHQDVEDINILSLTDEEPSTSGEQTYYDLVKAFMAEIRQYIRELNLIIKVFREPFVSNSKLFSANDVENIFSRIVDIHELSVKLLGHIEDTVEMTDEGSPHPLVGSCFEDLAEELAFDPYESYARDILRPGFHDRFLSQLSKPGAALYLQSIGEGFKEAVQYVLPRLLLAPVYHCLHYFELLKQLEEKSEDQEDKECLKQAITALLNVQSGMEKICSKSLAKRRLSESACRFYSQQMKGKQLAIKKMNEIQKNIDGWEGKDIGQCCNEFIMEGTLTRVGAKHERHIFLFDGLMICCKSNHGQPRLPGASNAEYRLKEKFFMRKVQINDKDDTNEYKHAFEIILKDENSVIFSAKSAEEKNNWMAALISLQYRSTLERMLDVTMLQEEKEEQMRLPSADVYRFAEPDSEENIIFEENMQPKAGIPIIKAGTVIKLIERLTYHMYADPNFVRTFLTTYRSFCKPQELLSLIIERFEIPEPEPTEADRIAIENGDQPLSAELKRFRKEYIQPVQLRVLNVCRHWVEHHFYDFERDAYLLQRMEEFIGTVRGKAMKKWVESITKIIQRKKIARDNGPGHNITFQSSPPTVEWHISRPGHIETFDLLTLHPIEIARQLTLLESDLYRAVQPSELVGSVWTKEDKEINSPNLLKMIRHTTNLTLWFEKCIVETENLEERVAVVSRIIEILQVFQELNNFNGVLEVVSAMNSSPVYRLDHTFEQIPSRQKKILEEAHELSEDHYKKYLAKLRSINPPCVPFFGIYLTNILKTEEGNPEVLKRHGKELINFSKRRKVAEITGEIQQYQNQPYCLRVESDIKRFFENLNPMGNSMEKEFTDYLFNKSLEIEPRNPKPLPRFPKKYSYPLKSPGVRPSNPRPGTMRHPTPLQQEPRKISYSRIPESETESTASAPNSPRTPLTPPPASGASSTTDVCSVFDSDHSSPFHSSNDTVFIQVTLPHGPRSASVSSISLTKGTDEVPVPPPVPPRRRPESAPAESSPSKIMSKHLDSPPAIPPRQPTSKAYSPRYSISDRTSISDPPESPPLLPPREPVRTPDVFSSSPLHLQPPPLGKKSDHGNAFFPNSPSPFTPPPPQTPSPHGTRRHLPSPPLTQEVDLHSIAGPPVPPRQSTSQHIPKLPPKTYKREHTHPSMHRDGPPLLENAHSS
The assay is described as follows: biochemical.

In assay [1] the target is T2, KRAS G12D/SOS1 (Homo sapiens, UniProt Q07889).
T2 sequence (Q07889 1-1333): T1 sequence (Q07889 1-1333)
As to the kind of experiment: biochemical.

The target in assay [2] is T3, KRAS-WT/SOS1 (Homo sapiens, UniProt Q07889).
T3 sequence (Q07889 1-1333): T1 sequence (Q07889 1-1333)
The assay is described as follows: biochemical.

Assay [3] deals with T3, KRAS-WT/SOS1. The assay is described as follows: KRAS-WT/SOS1 binding assay (HTRF). The following applies: Tag2-KRAS-WT with Tag1-SOS1, 10 μM GTP.
Assay [4] concerns the target T2, KRAS G12D/SOS1. The assay is described as follows: KRAS G12D/SOS1 binding assay (HTRF). The following applies: Tag2-KRAS G12D with Tag1-SOS1, 10 μM GTP. For orientation: TR-FRET usually uses a lanthanide donor and a delayed reading to cut background.

These results are taken from patent US20240109887A1 (Viva Star Biosciences (Suzhou) Co., Ltd., priority 2021, published 2024).

Structures are written as SMILES.

Regarding `C[C@@H](NC(=O)c1cn(C2CCOCC2)c(=O)c2c[nH]nc12)c1cccc(C(F)(F)CO)c1` [Example 1, (R)—N-(1-(3-(1,1-difluoro-2-hydroxyethyl)phenyl)ethyl)-4-oxo-5-(tetrahydro-2H-pyran-4-yl)-4,5-dihydro-2H-pyrazolo[4,3-c]pyridine-7-carboxamide], the IC50 against KRAS G12C/SOS1 and at KRAS G12D/SOS1 [1] was under 100 nM each time.

As to `C[C@@H](NC(=O)c1cn(C2CCOCC2)c(=O)c2c[nH]nc12)c1cccc(C(F)F)c1F` [Example 3, (R)-N-(1-(3-(difluoromethyl)-2-fluorophenyl)ethyl)-4-oxo-5-(tetrahydro-2H-pyran-4-yl)-4,5-dihydro-2H-pyrazolo[4,3-c]pyridine-7-carboxamide], the IC50 at KRAS-WT/SOS1 [2], at KRAS G12C/SOS1 and against KRAS G12D/SOS1 [1] was under 100 nM throughout.

For `C[C@@H](NC(=O)c1cn(C2(C)CC2)c(=O)c2cn[nH]c12)c1cccc(C(F)(F)F)n1` [Example 8, (R)-5-(1-methylcyclopropyl)-4-oxo-N-(1-(6-(trifluoromethyl)pyridin-2-yl)ethyl)-4,5-dihydro-1H-pyrazolo[4,3-c]pyridine-7-carboxamide], the “Activity Data in Kras: SOS1 Assay, Wild Type” value at KRAS-WT/SOS1 [3] is reported as “C (C: 500~5 μM)”. On KRAS G12D/SOS1 [4], the “Activity Data in Kras: SOS1 Assay, G12D” value is listed as “C (C: 500~5 μM)”.

Consider `C[C@@H](NC(=O)c1cn([C@H]2CC[C@@H](C(=O)N(C)CCO)CC2)c(=O)c2c[nH]nc12)c1cccc2c1CCC2(F)F` [Example 11, N—((R)-1-(1,1-difluoro-2,3-dihydro-1H-inden-4-yl)ethyl)-5-((1s,4S)-4-((2-hydroxyethyl)(methyl)carbamoyl)cyclohexyl)-4-oxo-4,5-dihydro-2H-pyrazolo[4,3-c]pyridine-7-carboxamide], for which the “Activity Data in Kras: SOS1 Assay, Wild Type” value on KRAS-WT/SOS1 [3] is “C (C: 500~5 μM)”. The “Activity Data in Kras: SOS1 Assay, G12D” value on KRAS G12D/SOS1 [4] was “C (C: 500~5 μM)”.

In the case of `COc1c(C2CCOCC2)cc(C(=O)N[C@H](C)c2cccc3c2CCC3(F)F)c2n[nH]cc12` [Example 16, N-[(1R)-1-(1,1-difluoro-2,3-dihydro-1H-inden-4-yl)ethyl]-4-methoxy-5-(oxan-4-yl)-2H-indazole-7-carboxamide], the IC50 at KRAS G12C/SOS1 lay in the range of 100 to 500 nM.

The compound `COc1c(-c2ccc(=O)n(C)c2)cc(C(=O)N[C@H](C)c2cccc3c2CCC3(F)F)c2n[nH]cc12` [Example 17, N-[(1R)-1-(1,1-difluoro-2,3-dihydro-1H-inden-4-yl)ethyl]-4-methoxy-5-(1-methyl-6-oxo-1,6-dihydropyridin-3-yl)-2H-indazole-7-carboxamide] had an IC50 against KRAS G12C/SOS1 of under 100 nM.

In the case of `Cc1nc(N[C@H](C)c2cccc(C(F)(F)CO)c2)c2c(n1)N(C)C(=O)N(C1CCOCC1)C2` [Example 25, (R)-5-((1-(3-(1,1-difluoro-2-hydroxyethyl)phenyl)ethyl)amino)-1,7-dimethyl-3-(tetrahydro-2H-pyran-4-yl)-3,4-dihydropyrimido[4,5-d]pyrimidin-2(1H)-one], the IC50 against KRAS-WT/SOS1 [2] and at KRAS G12C/SOS1 was 100 to 500 nM in each case.

On KRAS G12C/SOS1, `Cc1nc(N[C@H](C)c2cccc3c2CCC3(F)F)c2c(n1)N(C)C(=O)N(C1CCOCC1)C2` [Example 26, (R)-5-((1-(1,1-difluoro-2,3-dihydro-1H-inden-4-yl)ethyl)amino)-1,7-dimethyl-3-(tetrahydro-2H-pyran-4-yl)-3,4-dihydropyrimido[4,5-d]pyrimidin-2(1H)-one] gave an IC50 of 100 to 500 nM.

Consider `COc1c(O[C@H]2CCOC2)cc(C(=O)N[C@H](C)c2cccc(C(F)(F)CO)c2)c2n[nH]cc12` [Example 30, N-((R)-1-(3-(1,1-difluoro-2-hydroxyethyl)phenyl)ethyl)-4-methoxy-5-(((S)-tetrahydrofuran-3-yl)oxy)-2H-indazole-7-carboxamide], for which the IC50 at KRAS-WT/SOS1 [2] and against KRAS G12D/SOS1 [1] was 100 to 500 nM each time.

On to `COc1c(N2CCN(C)CC2)cc(C(=O)N[C@H](C)c2cccc(C(F)(F)CO)c2)c2[nH]ncc12` [Example 32, N-[(1R)-1-[3-(1,1-difluoro-2-hydroxyethyl)phenyl]ethyl]-4-methoxy-5-(4-methylpiperazin-1-yl)-1H-indazole-7-carboxamide], for which the IC50 on KRAS-WT/SOS1 [2] and at KRAS G12D/SOS1 [1] was under 100 nM each time.

On to `COc1c(N2CCNCC2)cc(C(=O)N[C@H](C)c2cccc(C(F)(F)CO)c2)c2[nH]ncc12` [Example 33], for which the IC50 against KRAS-WT/SOS1 [2] and on KRAS G12D/SOS1 [1] was under 100 nM throughout.

In the case of `COc1c(C2CCN(C)CC2)cc(C(=O)N[C@H](C)c2cccc(C(F)(F)CO)c2)c2[nH]ncc12` [Example 34, N-[(1R)-1-[3-(1,1-difluoro-2-hydroxyethyl)phenyl]ethyl]-4-methoxy-5-(1-methylpiperidin-4-yl)-1H-indazole-7-carboxamide], the concentration for half-maximal inhibition (IC50) on KRAS-WT/SOS1 [2] and against KRAS G12D/SOS1 [1] was under 100 nM throughout.

Regarding `COc1c(C2CCNCC2)cc(C(=O)N[C@H](C)c2cccc(C(F)(F)CO)c2)c2[nH]ncc12` [Example 35, N-[(1R)-1-[3-(1,1-difluoro-2-hydroxyethyl)phenyl]ethyl]-4-methoxy-5-(piperidin-4-yl)-1H-indazole-7-carboxamide], the IC50 against KRAS-WT/SOS1 [2] and against KRAS G12D/SOS1 [1] was under 100 nM throughout.

In the case of `COc1c(C2CCCNC2)cc(C(=O)N[C@H](C)c2cccc(C(F)(F)CO)c2)c2[nH]ncc12` (stereo partly drawn) [Example 36, N—((R)-1-(3-(1,1-difluoro-2-hydroxyethyl)phenyl)ethyl)-4-methoxy-5-(piperidin-3-yl)-1H-indazole-7-carboxamide], the IC50 against KRAS-WT/SOS1 [2] and against KRAS G12D/SOS1 [1] was under 100 nM in each case.

`COc1c(C2CCCN(C)C2)cc(C(=O)N[C@H](C)c2cccc(C(F)(F)CO)c2)c2[nH]ncc12` (stereo partly drawn) [Example 37, N—((R)-1-(3-(1,1-difluoro-2-hydroxyethyl)phenyl)ethyl)-4-methoxy-5-(1-methylpiperidin-3-yl)-1H-indazole-7-carboxamide]: the IC50 against KRAS-WT/SOS1 [2] and on KRAS G12D/SOS1 [1] was under 100 nM each time.

On KRAS G12C/SOS1, `C[C@@H](NC(=O)c1cn(C2CCOCC2)c(=O)c2cc[nH]c12)c1cccc2c1CCC2(F)F` [Example 38, (R)—N-(1-(1,1-difluoro-2,3-dihydro-1H-inden-4-yl)ethyl)-4-oxo-5-(tetrahydro-2H-pyran-4-yl)-4,5-dihydro-1H-pyrrolo[3,2-c]pyridine-7-carboxamide] came in with an IC50 of under 100 nM.

In the case of `C[C@@H](NC(=O)c1cn(C2CCOCC2)c(=O)c2cc[nH]c12)c1cccc(C(F)(F)CO)c1` [Example 39, (R)—N-(1-(3-(1,1-difluoro-2-hydroxyethyl)phenyl)ethyl)-4-oxo-5-(tetrahydro-2H-pyran-4-yl)-4,5-dihydro-1H-pyrrolo[3,2-c]pyridine-7-carboxamide], the IC50 at KRAS G12C/SOS1 was under 100 nM.

Compound `C[C@@H](NC(=O)c1cn(C2CCOCC2)c(=O)c2cc[nH]c12)c1cccc(C(F)F)c1F` [Example 40, (R)—N-(1-(3-(difluoromethyl)-2-fluorophenyl)ethyl)-4-oxo-5-(tetrahydro-2H-pyran-4-yl)-4,5-dihydro-1H-pyrrolo[3,2-c]pyridine-7-carboxamide] returned an IC50 on KRAS G12C/SOS1 of under 100 nM.

With `C[C@@H](NC(=O)c1cn(C2(C)CC2)c(=O)c2cc[nH]c12)c1cccc2c1CCC2(F)F` [Example 41, (R)—N-(1-(1,1-difluoro-2,3-dihydro-1H-inden-4-yl)ethyl)-5-(1-methylcyclopropyl)-4-oxo-4,5-dihydro-1H-pyrrolo[3,2-c]pyridine-7-carboxamide], the IC50 at KRAS-WT/SOS1 [2] and against KRAS G12D/SOS1 [1] was under 100 nM throughout.

As to `C[C@@H](NC(=O)c1cn(C2(C)CC2)c(=O)c2cc[nH]c12)c1cccc(C(F)(F)CO)c1` [Example 42, (R)—N-(1-(3-(1,1-difluoro-2-hydroxyethyl)phenyl)ethyl)-5-(1-methylcyclopropyl)-4-oxo-4,5-dihydro-1H-pyrrolo[3,2-c]pyridine-7-carboxamide], the IC50 against KRAS-WT/SOS1 [2] and against KRAS G12D/SOS1 [1] was under 100 nM in each case.

The IC50 is the concentration that inhibits the measured activity by half. A low value points to greater potency in that assay.
